Measured values: patent publication US3932625A, “Method and compound for parasite control” (Purdue Research Foundation, priority 1974, dated 1976)

Assays:
[1] = Single-dose acute toxicity (lethal dose, 50% kill of test animals); conditions: rat, in vivo, rats, route not stated, read-out: LD50 (lethal dose as measured by a 50% kill of test animals)
Source text: Thus, 5-Thio-D-glucose is suitable for administering to animals and/or humans.

[2] = test system: transport of real D-glucose across a cell membrane; conditions: stated as known characteristic; cited from earlier work

OC[C@H]1SC(O)[C@H](O)[C@@H](O)[C@@H]1O (stereo partly drawn) [5-Thio-D-glucose]
LD50 [1]: 14000 mg/kg | inhibition of transport of real D-glucose across a cell membrane [2]: inhibiting the transport of real D-glucose across a cell membrane
